The values that follow are results of earlier work, collected in patent US20210095260A1, “BI- OR MULTI-DIFFERENTIATED ORGANOID” (IMBA - INSTITUT FÜR MOLEKULARE BIOTECHNOLOGIE GMBH, priority 2017, published 2021).

The series concerns hPSCs. Particulars: inhibition of SHH activity; cited from earlier work.

In the case of `CC1=C2C[C@H]3[C@@H](CC=C4C[C@@H](O)CC[C@@]43C)[C@@H]2CC[C@]12O[C@@H]1C[C@H](C)CN[C@H]1[C@H]2C` [CycA, cyclopamine A], the dorsal forebrain identity result is recorded as “can enhance dorsal forebrain identity”.
